# Where two headings read alike, the source gives them in different places.
# Key:
# Assay in all cases: SelectScreen Z-LYTE kinase activity assay (SI Table 6)
# Format in all cases: biochemical
# [1] = biological target: protein kinases of the Z-LYTE panel (Homo sapiens, UniProt P31749)
# Description: (§1) 133 protein kinases and 7 lipid kinases were counterscreened, with 1938 used at 1 μM, using the Adapta, Lantha and Z-LYTE assays (SelectScreen Kinase Profiling Service; Thermofisher – experimental details of these assays can be found here: https://www.thermofisher.com/uk/en/home/industrial/pharma-biopharma/drug-discovery-development/target-and-lead-identification-and-validation/kinasebiology/kinase-activity-assays.html. The tree represention in KinMap[59] generated courtesy of Cell Signaling Technology, Inc. (www.cellsignal.com). mTORC1 (mTOR/RAPTOR/LST8) protein complex and ATM kinase and substrates were produced as previously described[57],[60]. Screening of 1938 was conducted using SuperSep Phos-Tag 50 μmol/l 100 x 100 x 6.6 mm 17-well (192-18001/199-18011) gels. For ATM assays, 100 nM ATM was incubated for 30 min at 30°C with 5 μM GST-p53 and 1 mM ATP, in the absence or presence of 200 μM 1938 in ATM Kinase Buffer (50 mM HEPES pH 7.5, 100 mM NaCl, 10% glycerol, 2 mM […], 5 mM MgCl2). As a positive control for ATM activation, the same reaction was carried out with 100 nM ATM/5 μM GST-p53/1 mM ATP in the presence of 100 nM Mre11-Rad50-Nbs1 (MRN) complex, a known activator of ATM[61]. For mTORC1 assays, 50 nM mTORC1 complex (mTOR/LST8/RAPTOR) was incubated for 3 h at 30°C with 15 μM 4E-BP1, 10 mM MgCl2 and 250 μM ATP, in the absence or presence of 200 μM 1938. As a ‘positive’ control, a higher concentration (150 nM) of mTORC1 complex (mTOR/LST8/RAPTOR) was incubated for 3 h at 30°C with 15 μM 4E-BP1, 10 mM MgCl2 and 250 μM ATP. Kinase reactions were quenched by addition of SDS-PAGE Loading Buffer (as per manufacturer’s instructions) and freezing at -20°C before being run on the Phos-tag gels at 150 V for 90 min. Gels were then stained using InstantBlue™ Coomassie, and quantified using BioRad Image Lab Software. Kinase assays were carried out in triplicate.
# [2] = biological target: protein kinases of the Z-LYTE panel (Homo sapiens, UniProt Q9P286)
# Description: as §1
# [3] = biological target: T1, protein kinases of the Z-LYTE panel (Homo sapiens, UniProt P54762)
# T1 sequence (P54762 18-984): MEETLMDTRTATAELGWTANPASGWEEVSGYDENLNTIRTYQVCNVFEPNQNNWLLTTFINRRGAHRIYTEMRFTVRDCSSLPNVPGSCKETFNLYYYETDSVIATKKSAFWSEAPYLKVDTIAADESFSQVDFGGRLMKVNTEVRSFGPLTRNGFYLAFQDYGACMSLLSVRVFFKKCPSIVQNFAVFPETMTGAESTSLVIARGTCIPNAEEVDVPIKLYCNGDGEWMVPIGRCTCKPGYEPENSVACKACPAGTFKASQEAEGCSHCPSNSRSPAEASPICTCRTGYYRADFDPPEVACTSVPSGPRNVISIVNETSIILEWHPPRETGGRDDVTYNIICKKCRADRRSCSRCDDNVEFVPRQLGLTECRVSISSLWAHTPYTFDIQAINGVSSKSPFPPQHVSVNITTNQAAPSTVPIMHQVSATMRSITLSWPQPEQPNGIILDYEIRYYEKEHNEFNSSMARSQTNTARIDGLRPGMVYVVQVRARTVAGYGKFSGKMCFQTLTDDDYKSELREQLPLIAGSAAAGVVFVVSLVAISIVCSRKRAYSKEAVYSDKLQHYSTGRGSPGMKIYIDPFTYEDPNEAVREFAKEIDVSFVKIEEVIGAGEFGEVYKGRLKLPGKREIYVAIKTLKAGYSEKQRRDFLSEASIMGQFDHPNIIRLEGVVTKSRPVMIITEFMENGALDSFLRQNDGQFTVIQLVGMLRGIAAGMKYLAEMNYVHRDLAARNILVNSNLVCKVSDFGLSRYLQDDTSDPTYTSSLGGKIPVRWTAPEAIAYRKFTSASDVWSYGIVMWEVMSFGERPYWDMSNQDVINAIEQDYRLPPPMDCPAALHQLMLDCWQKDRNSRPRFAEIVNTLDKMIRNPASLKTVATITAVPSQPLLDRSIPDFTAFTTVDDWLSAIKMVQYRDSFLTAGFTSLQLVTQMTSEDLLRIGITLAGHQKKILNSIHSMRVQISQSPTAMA
# Description: as §1
# [4] = biological target: T2, protein kinases of the Z-LYTE panel (Homo sapiens, UniProt Q13976)
# T2 sequence (Q13976 1-671): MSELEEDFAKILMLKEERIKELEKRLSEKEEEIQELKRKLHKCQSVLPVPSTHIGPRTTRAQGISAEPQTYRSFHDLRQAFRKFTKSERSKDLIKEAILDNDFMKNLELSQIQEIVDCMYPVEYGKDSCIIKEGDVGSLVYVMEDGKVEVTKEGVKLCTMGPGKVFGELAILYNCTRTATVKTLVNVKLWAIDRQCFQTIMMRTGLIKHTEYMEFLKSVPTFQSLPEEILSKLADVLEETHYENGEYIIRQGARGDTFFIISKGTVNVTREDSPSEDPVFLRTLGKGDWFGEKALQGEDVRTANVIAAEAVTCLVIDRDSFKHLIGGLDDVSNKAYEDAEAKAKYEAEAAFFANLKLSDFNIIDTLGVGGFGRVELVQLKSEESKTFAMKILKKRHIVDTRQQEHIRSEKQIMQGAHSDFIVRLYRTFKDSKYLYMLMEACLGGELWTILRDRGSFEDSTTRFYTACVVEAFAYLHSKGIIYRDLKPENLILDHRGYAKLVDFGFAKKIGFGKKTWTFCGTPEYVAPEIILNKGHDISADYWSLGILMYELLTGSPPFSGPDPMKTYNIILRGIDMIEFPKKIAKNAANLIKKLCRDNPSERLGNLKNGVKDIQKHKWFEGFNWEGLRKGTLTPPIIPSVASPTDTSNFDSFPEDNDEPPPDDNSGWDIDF
# Description: as §1
# Chain of protein kinases of the Z-LYTE panel (Homo sapiens, UniProt P31749) (P31749 whole entry): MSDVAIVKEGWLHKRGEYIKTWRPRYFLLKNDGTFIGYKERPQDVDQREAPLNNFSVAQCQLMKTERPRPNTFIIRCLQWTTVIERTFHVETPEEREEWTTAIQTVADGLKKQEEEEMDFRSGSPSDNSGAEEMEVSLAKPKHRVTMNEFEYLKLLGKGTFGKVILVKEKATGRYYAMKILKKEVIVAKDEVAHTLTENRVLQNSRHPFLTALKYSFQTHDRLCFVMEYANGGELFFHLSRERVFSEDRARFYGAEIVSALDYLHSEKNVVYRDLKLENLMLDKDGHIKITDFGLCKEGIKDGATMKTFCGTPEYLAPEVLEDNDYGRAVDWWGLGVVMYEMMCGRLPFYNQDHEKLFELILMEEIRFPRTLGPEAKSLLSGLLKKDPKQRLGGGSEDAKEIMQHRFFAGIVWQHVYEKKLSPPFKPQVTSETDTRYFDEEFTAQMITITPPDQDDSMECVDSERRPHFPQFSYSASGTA
# Chain of protein kinases of the Z-LYTE panel (Homo sapiens, UniProt Q9P286) (Q9P286 whole entry): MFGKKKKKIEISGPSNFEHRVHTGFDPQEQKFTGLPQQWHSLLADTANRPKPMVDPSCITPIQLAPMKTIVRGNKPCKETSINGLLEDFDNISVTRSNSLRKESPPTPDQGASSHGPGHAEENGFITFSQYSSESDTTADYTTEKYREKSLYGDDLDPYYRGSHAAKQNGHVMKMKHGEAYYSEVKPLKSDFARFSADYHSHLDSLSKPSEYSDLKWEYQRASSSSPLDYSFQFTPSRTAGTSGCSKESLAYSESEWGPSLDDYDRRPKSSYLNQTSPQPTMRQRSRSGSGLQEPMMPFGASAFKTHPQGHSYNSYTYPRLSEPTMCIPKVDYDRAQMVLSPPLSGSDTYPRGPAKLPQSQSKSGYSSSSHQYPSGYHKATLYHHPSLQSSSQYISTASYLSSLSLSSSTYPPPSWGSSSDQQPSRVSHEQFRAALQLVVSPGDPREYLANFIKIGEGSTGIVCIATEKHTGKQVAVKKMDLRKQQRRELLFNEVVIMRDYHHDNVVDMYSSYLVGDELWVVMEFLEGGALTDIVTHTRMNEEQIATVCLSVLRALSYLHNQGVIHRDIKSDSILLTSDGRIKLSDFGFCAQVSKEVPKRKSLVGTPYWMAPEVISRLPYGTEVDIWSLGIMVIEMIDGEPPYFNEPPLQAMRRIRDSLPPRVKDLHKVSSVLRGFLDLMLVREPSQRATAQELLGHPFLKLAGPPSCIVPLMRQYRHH
compound,measurement,setting,value
CCN1CCN(c2ccc(Nc3cc(Nc4cccc5c4N(C(C)=O)CC5)ccn3)cc2)CC1 [Compound 1938],inhibition at 1 µM,[1]; read-out: % Inhibition Point 1,4.32%
same,inhibition at 1 µM,[1]; read-out: % Inhibition Point 2,3.3%
same,inhibition at 1 µM,[1]; read-out: % Inhibition mean,4%
same,inhibition at 1 µM,[2]; read-out: % Inhibition Point 1,0.526%
same,inhibition at 1 µM,[2]; read-out: % Inhibition Point 2,3.33%
same,inhibition at 1 µM,[2]; read-out: % Inhibition mean,2%
same,inhibition at 1 µM,[3]; read-out: % Inhibition Point 1,11%
same,inhibition at 1 µM,[3]; read-out: % Inhibition Point 2,11%
same,inhibition at 1 µM,[3]; read-out: % Inhibition mean,11%
same,inhibition at 1 µM,[4]; read-out: % Inhibition Point 1,4.68%
same,inhibition at 1 µM,[4]; read-out: % Inhibition Point 2,-0.193%
same,inhibition at 1 µM,[4]; read-out: % Inhibition mean,2.24%

# — paper PMC7614683, “A small molecule PI3Kα activator for cardioprotection and neuroregeneration” (Nature, 2023)
